According to ChEMBL document CHEMBL1201862, “PubChem BioAssay data set” (2004):
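Assay format: 96-well plates, 48-hour exposure. Here, GI50 denotes the concentration required for 50% inhibition of growth.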 Active and inactive are the calls of the source. No stated cut-off is given here; in the data, active = GI50 up to about 1.1 µM and inactive = higher.

Key:
Assay in all cases: NCI-60 cell line screen, 48 h
[1] = system: SNB-78
[2] = system: A549
[3] = system: TK-10
[4] = system: SK-OV-3
[5] = system: DMS-114
[6] = system: LOX IMVI
[7] = system: HOP-92
[8] = system: SW-620
[9] = system: Malme-3M
[10] = system: HCT-15
[11] = system: ACHN
[12] = system: CAKI-1
[13] = system: SR
[14] = system: DLD-1
[15] = system: UACC-257
[16] = system: MOLT-4
[17] = system: U-251
[18] = system: OVCAR-4
[19] = system: NCI-H23
[20] = system: KM12
[21] = system: SK-MEL-5
[22] = system: SNB-19
[23] = system: SNB-75
[24] = system: CCRF-CEM
[25] = system: NCI-H226
[26] = system: RXF 393
[27] = system: HT-29
[28] = system: HCT-116
[29] = system: RPMI-8226
[30] = system: DMS-273
[31] = system: SF-268
[32] = system: NCI-H460
[33] = system: COLO 205
[34] = system: SK-MEL-28
[35] = system: HL-60
[36] = system: HOP-18
[37] = system: SK-MEL-2
[38] = system: LXFL 529
[39] = system: SF-295
[40] = system: NCI-H522
[41] = system: SN12C
[42] = system: OVCAR-5
[43] = system: HCC 2998
[44] = system: KM-20L2
[45] = system: OVCAR-8
[46] = system: 786-0
[47] = system: IGROV-1
[48] = system: M19-MEL
[49] = system: UO-31
[50] = system: K562
[51] = system: OVCAR-3
[52] = system: A498
[53] = system: EKVX
[54] = system: UACC-62
[55] = system: SF-539
[56] = system: HOP-62
[57] = system: M14

`NC1C(O)C(O)C(CO)OC1n1cc(F)c(=O)[nH]c1=O` (configuration not stated) was tested, and the GI50 [1] was > 100 µM (inactive), the GI50 [2] was > 100 µM (inactive) and the GI50 [3] was > 100 µM (inactive). For the same compound, the GI50 [4] was > 100 µM (inactive), the GI50 [5] was > 100 µM (inactive) and the GI50 [6] was > 100 µM (inactive). For the same compound, the GI50 [7] was > 100 µM (inactive), the GI50 [8] was > 100 µM (inactive) and the GI50 [9] was > 100 µM (inactive). For the same compound, the GI50 [10] was > 100 µM, the GI50 [11] was > 100 µM (inactive) and the GI50 [12] was > 100 µM (inactive). For the same compound, the GI50 [13] was > 100 µM (inactive), the GI50 [14] was > 100 µM (inactive) and the GI50 [15] was > 100 µM (inactive). The GI50 [16] was > 100 µM (inactive), the GI50 [17] was > 100 µM (inactive) and the GI50 [18] was > 100 µM (inactive). For the same compound, the GI50 [19] was > 100 µM (inactive), the GI50 [20] was > 100 µM (inactive) and the GI50 [21] was > 100 µM (inactive). For the same compound, the GI50 [22] was > 100 µM (inactive), the GI50 [23] was 91.2 µM (inactive) and the GI50 [24] was > 100 µM (inactive). The GI50 [25] was > 100 µM (inactive), the GI50 [26] was > 100 µM (inactive) and the GI50 [27] was > 100 µM (inactive). The GI50 [28] was > 100 µM (inactive), the GI50 [29] was > 100 µM (inactive) and the GI50 [30] was > 100 µM (inactive). The GI50 [31] was > 100 µM (inactive), the GI50 [32] was > 100 µM (inactive) and the GI50 [33] was > 100 µM (inactive). The GI50 [34] was > 100 µM (inactive), the GI50 [35] was > 100 µM (inactive) and the GI50 [36] was > 100 µM (inactive). For the same compound, the GI50 [37] was > 100 µM (inactive), the GI50 [38] was > 100 µM (inactive) and the GI50 [39] was > 100 µM (inactive). The GI50 [40] was > 100 µM (inactive), the GI50 [41] was > 100 µM (inactive) and the GI50 [42] was > 100 µM (inactive). For the same compound, the GI50 [43] was > 100 µM (inactive).
With `O=C(O)c1nc(-c2ccc(Cl)c(Cl)c2)nc2ccc(Cl)cc12` the GI50 [1] was 27.9 µM (inactive), the GI50 [2] was > 100 µM (inactive) and the GI50 [3] was 44.8 µM (inactive). The GI50 [4] was 17.8 µM (inactive), the GI50 [44] was > 100 µM (inactive) and the GI50 [45] was 70.6 µM (inactive). The GI50 [8] was > 100 µM (inactive), the GI50 [9] was > 100 µM (inactive) and the GI50 [10] was > 100 µM. The GI50 [11] was > 100 µM (inactive), the GI50 [46] was 48.4 µM (inactive) and the GI50 [12] was 73.1 µM (inactive). The GI50 [13] was 64.4 µM (inactive), the GI50 [14] was > 100 µM (inactive) and the GI50 [15] was > 100 µM (inactive). The GI50 [16] was 40.8 µM (inactive), the GI50 [17] was 61.5 µM (inactive) and the GI50 [47] was 51.5 µM (inactive). The GI50 [48] was > 100 µM (inactive), the GI50 [19] was 38.3 µM (inactive) and the GI50 [20] was > 100 µM (inactive). The GI50 [49] was > 100 µM (inactive), the GI50 [21] was > 100 µM (inactive) and the GI50 [22] was 51.9 µM (inactive). For the same compound, the GI50 [23] was 13.6 µM (inactive), the GI50 [50] was > 10 µM (inactive) and the GI50 [51] was 51.9 µM (inactive). For the same compound, the GI50 [24] was > 10 µM (inactive), the GI50 [26] was 28.3 µM (inactive) and the GI50 [27] was > 100 µM (inactive). The GI50 [28] was 66.7 µM (inactive), the GI50 [29] was > 100 µM (inactive) and the GI50 [52] was > 100 µM (inactive). The GI50 [53] was > 100 µM (inactive), the GI50 [30] was 44.7 µM (inactive) and the GI50 [31] was 63 µM (inactive). For the same compound, the GI50 [32] was > 100 µM (inactive), the GI50 [33] was > 100 µM (inactive) and the GI50 [54] was > 100 µM (inactive). For the same compound, the GI50 [55] was > 100 µM (inactive), the GI50 [34] was > 100 µM (inactive) and the GI50 [56] was 38.2 µM (inactive). The GI50 [35] was 16.6 µM (inactive), the GI50 [37] was 78 µM (inactive) and the GI50 [38] was > 100 µM (inactive). The GI50 [39] was 45.9 µM (inactive), the GI50 [41] was > 100 µM (inactive) and the GI50 [42] was > 100 µM (inactive). The GI50 [43] was > 100 µM (inactive).
For `CC1=C(C2=C(C)C(=O)c3c(c(C=O)c(O)c(O)c3C(C)C)C2=O)C(=O)c2c(C=O)c(O)c(O)c(C(C)C)c2C1=O` [GOSSYPOLONE], the GI50 [1] was 2.2 µM (inactive), the GI50 [4] was 3.21 µM (inactive) and the GI50 [44] was 2.21 µM (inactive). For the same compound, the GI50 [5] was 2.23 µM (inactive), the GI50 [7] was 2.53 µM (inactive) and the GI50 [9] was 4.33 µM (inactive). The GI50 [11] was 2.96 µM (inactive), the GI50 [13] was 3.97 µM (inactive) and the GI50 [15] was 3.99 µM (inactive). For the same compound, the GI50 [16] was 2.74 µM (inactive), the GI50 [17] was 2.64 µM (inactive) and the GI50 [47] was 2.69 µM (inactive). For the same compound, the GI50 [18] was 3.05 µM (inactive), the GI50 [48] was 4.32 µM (inactive) and the GI50 [19] was 3.72 µM (inactive). The GI50 [20] was 2.24 µM (inactive), the GI50 [49] was 2.17 µM (inactive) and the GI50 [22] was 4.44 µM (inactive). The GI50 [23] was 6.59 µM (inactive), the GI50 [50] was 2.95 µM (inactive) and the GI50 [51] was 2.31 µM (inactive). For the same compound, the GI50 [24] was 1.82 µM (inactive), the GI50 [26] was 2.34 µM (inactive) and the GI50 [27] was 2.19 µM (inactive). The GI50 [28] was 2.36 µM (inactive), the GI50 [29] was 2.29 µM (inactive) and the GI50 [31] was 2.72 µM (inactive). The GI50 [32] was 2.98 µM (inactive), the GI50 [33] was 3.18 µM (inactive) and the GI50 [54] was 2.77 µM (inactive). For the same compound, the GI50 [55] was 2.69 µM (inactive), the GI50 [34] was 4.8 µM (inactive) and the GI50 [56] was 3.64 µM (inactive). The GI50 [35] was 2.99 µM (inactive), the GI50 [37] was 1.75 µM (inactive) and the GI50 [57] was 1.96 µM (inactive). For the same compound, the GI50 [38] was 3.4 µM (inactive), the GI50 [39] was 1.93 µM (inactive) and the GI50 [40] was 4.67 µM (inactive). For the same compound, the GI50 [42] was 1.89 µM (inactive).
